Assay results: patent publication US8431530B2, “Compositions and methods for treating aids or cancer by inhibiting the secretion of microparticles” (priority 2009, dated 2013)

Columns and labels:
[1] = system: R7 in Jurkat cells; assay: Confocal microscopy of p24 in R7 transfected cells; type: cell-based, HIV; settings: day 3, 6, 10, 14, 17 after transfection with R7, accumulation in cytoplasm day 3, 6, 10
Source text: FIG. 4A is a composite of diagrams showing ELISA analysis of p24 concentration in Jurkat cells (panel A), HEK293 cells (panel B), THP-1 Monocytes (panel C) and U937 monocytes (panel D). FIG. 4B is a composite of confocal microscope pictures showing blocking of p24 release in Jurkat cells by SMRwt peptide (panel A) but not by SMRrmt peptide (panel B). FIG. 4C is a composite of confocal and electron microscope pictures showing viral particle distribution in Jurkat cells at day 6 post-transfection with R7 and SMRwt peptide (panel A-1) or with R7 and SMRmt peptide (panel B-1). FIG. 4D is a composite of confocal and electron microscope pictures showing viral particle distribution in Jurkat cells at day 14 post-transfection with R7 and SMRwt peptide (panel A-2) or with R7 and SMRmt peptide (panel B-2), FIG. 4E is a composite of confocal and electron microscope pictures showing viral particle distribution in subcellular structures in Jurkat cells at day 6 post-transfection with R7 and SMRwt peptide (panel A-1) or with R7 and SMRmt peptide (panel B-1) in Jurkat cells and at day 14 post-transfection with R7 and SMRwt peptide (panel A-2) or with R7 and SMRmt peptide (panel B-2) in Jurkat cells.
The effect of SMRwt, however, seems to be temporary. It appears that Jurkat and HEK cells can degrade the peptide over time, while U937 monocytes cannot degrade the peptide. […]

[2] = system: R7; Magi/CXCR4 cells; assay: Magi assay of viral infectivity, supernatants of THP-1 monocytes; type: cell-based, HIV; settings: supernatant from transfected THP-1 monocytes
Method: Magi/CXCR4 cells were exposed to 48 hour conditioned supernatants from Jurkat cells, HEK293 cells, THP-1 monocytes, or U937 monocytes transfected with either R7 viral DNA/SMRwt peptide or R7 viral DNA/SMRmt peptide. These cells were then fixed and stained with X-Gal. […] Cells productively infected with R7 are easily visualized under light microscopy by their blue nuclear staining. Magnification ×20. […] This is indicative of virus in the conditioned supernatant from the R7/negative control peptide treated cells and no virus in conditioned supernatant from the R7/antagonist treated cells.
These Magi cultures were quantitated for blue staining cells. The data was plotted as a function of time post-transfection. […] This is possibly due to antagonism of trafficking of viral component(s) to the cytoplasmic membrane. Ultimately this would shutdown the HIV infection and block progression to AIDS.

[3] = system: R7 in Jurkat cells, HEK293 cells, THP-1 monocytes, U937 monocytes; assay: Western blot of Nef and p24 in supernatant pellets; type: cell-based, HIV; settings: R7 co-transfection, HEK293, THP-1, U937, 400,000×g supernatant pellets
Method: At 2 hours, 3 days, 6 days, 9 days, 13 days, 15 days, 17 days, 20 days, 23 days, 27 days and 36 days post-transfection, 0.5 ml supernatant were collected from each plate, mixed with 0.5 ml fresh media and analyzed by p24 ELISA assay. 1.5 ml of supernatant were collected from each plate and spun in a TLA100 rotor at 400,000×g for 1 hour to create the pellets. The pellets were used for Western blot analysis with p24 mAb and Nef mAb.
No effect is observed for the negative control peptide (NefSMRmut). […] This is possibly due to antagonism of trafficking of viral component(s) to the cytoplasmic membrane. Ultimately this would (i) shutdown the HIV infection and (ii) block progression to AIDS.

[4] = system: Mortalin/GRP75 and other cellular factors of Jurkat cell lysates; assay: FLAG immuno-precipitation pulldown of cellular factors, MS and Western blot; type: binding; settings: FLAG IP on Jurkat cell lysates
Method: SMRwt vs. SMRmt peptides were used in conjunction with FLAG immuno-precipitation on Jurkat cell lysates to pulldown cellular factors that interacted with the SMRwt antagonist, but not with the SMRmt negative control. The cellular factor(s) that interact with the antagonist are analyzed by the FLAG IP assay. Briefly, cell lysates are combined with AminoLink Plus resin coupled to FLAG-tagged SMR peptides. SMR-specific cellular proteins (ROY) bind to the SMR peptides on the resin. Non-specific contaminants (G BIV) are washed off of the resin and removed by centrifugation. The SMR-specific cell proteins (ROY) are eluted and collected. Some strongly bound contaminants (V) are also eluted and collected.
Mortalin interacts with p53, and is shown to be involved in apoptosis and vesicle transport (MAC complex). It is also found in microvesicles released by tumor cells.
The gel was also Western probed with α-Mortalin antibody. A protein with a molecular weight of ˜75 kDa was detected in the lanes containing the cell lysate, the antagonist eluate, and the antagonist affinity resin (FIG. 13, panel B, Lanes 1, 3, and 5), but not in the negative control or negative control peptide eluate's lanes (FIG. 13, panel B, Lanes 2 and 4).

[5] = system: Jurkat cells; assay: Cellular toxicity assay, fluorescein diacetate and propidium iodide; type: cell-based; settings: peptide alone by Chariot, 48 hours
Source text: FIG. 12 is a composite of pictures showing the result of cellular toxicity assay for cells transfected with SMRwt or SMRmt peptide. Panels A-1 and B-1: Propidium iodide staining of cells transfected with SMRwt and SMRmt peptide, respectively. Panels A-2 and B-2: Fluorescein diacetate staining of cells transfected with SMRwt and SMRmt peptide, respectively. Panels A-3 and B-3: Phase microscope image of cells transfected with SMRwt and SMRmt peptide, respectively.
SMRwt or SMRmut (negative control) peptide alone were transfected into Jurkat cells using Chariot. The transfected cells were allowed to grow for 48 hours. The cells were assayed by Fluorescein diacetate (FD; taken up by live cells and converted to FITC making cells fluoresce green) and propidium iodide (PI; diffuse across porous membranes of dying cells fluoresing red inside those cells) for cytotoxicity.

Substance | p24 release (confocal microscopy) [1] | numbers of infected Magi cells as a function of time post-transfection [2] | amount of virus production (Western blot of p24 and Nef) [3] | ~75 kDa protein in peptide eluate, Western probed with α-Mortalin antibody [4] | cellular proteins in bands of the SMRwt lane but not the SMRmt lane (MALDI TOF MS/MS, LC/MS/MS) ([4]; SDS PAGE) | dying cells (propidium iodide) [5] [%] | cytotoxicity (in words) ([5]; FD/PI)
H-VGFPVAAVGFPVDYKDDDDK-OH [SMRwt] | blockage of p24 release | significantly reduced | drastically reduced to zero or close to zero | detected | Mortalin/GRP75; Myosin 10; Vimentin; GRP78; HSC70 | < 2 | very little or no cytotoxicity
H2N-AGFPVAAAGFPVDYKDDDDK-OH (H-AGFPVAAAGFPVDYKDDDDK-OH) [SMRmt] |  |  | No effect |  |  |  | 
